Data: US20210170043A1, “DC-SIGN ANTIBODY CONJUGATES COMPRISING STING AGONISTS” (NOVARTIS AG, priority 2018, published 2021)

What was measured:
human STING wild type = target: T1, human STING wild type (Homo sapiens, UniProt Q86WV6, H232R); experiment: hSTING wt assay (5xISRE-mIFNb-GL4 luciferase reporter in transfected HEK-293T cells); assay type: cell-based; settings: read after 9-14 hours, normalized to 2'3'-cGAMP at 50 uM
T1 construct: expressed in transfected cells; host or cells: HEK-293T
Experimental: Cells were incubated overnight and treated with compounds. After 9-14 hours, plates were read by adding BrightGlo reagent (Promega) and reading on an Envision plate reader. The fold change over background was calculated and normalized to the fold-change induced by 2′3′-cGAMP at 50 uM. Plates were run in triplicate.

THP1-Dual cells = experiment: THP1-Dual assay (Lucia reporter); assay type: cell-based; settings: Homo sapiens, 384 well, 16-24 hours, normalized to 2'3'-cGAMP at 50 uM
Experimental: THP1-Dual cells were purchased from Invivogen. THP1-Dual cells were plated in 384 well plates in 20 uL of tissue culture media and incubated overnight. Compounds were added the next day and incubated 16-24 hours. Lucia reporter signal was read out by adding Quantiluc reagent (Invivogen) followed by reading on an Envision plate reader. The fold change over background was calculated and normalized to the fold-change induced by 2′3′-cGAMP at 50 uM. Plates were run in triplicate.

[1] = tested on: transgenic mice expressing human DC-SIGN gene (Tg+); experiment: Plasma cytokine and chemokine levels in human DC-SIGN transgenic mice; assay type: in vivo, mouse; settings: 100 μg free compound i.v., 6 hours post dose, vs untreated and 10 μg
Experimental: Blood was collected at 6 hours post dose to analyze plasma cytokine and chemokine levels and spleens were analyzed at 24 hours post dose to look at dendritic cell activation.
(§1) Mice were bled 6 hours after dosing to collect plasma for analysis of circulating cytokine levels.
Plasma was collected at indicated timepoints and analyzed with a Mouse IP-10 Platinum ELISA kit (eBioscience Affymetrix). Plasma was diluted 1:100 and the protocol was followed according to the manufacturer's recommendations. Data was collected using an Enspire spectro-photometer using […] as the primary wavelength.
Plasma was collected at indicated timepoints and analyzed with a Mouse IFN-beta ELISA kit (R&D Systems) according to the manufacturer's recommendations. Data was collected using an Enspire spectro-photometer using […] as the primary wavelength.
Plasma was collected at indicated timepoints and analyzed with a mouse Proinflammatory Panel 1 (mouse) Kit V-PLEX™ 10 plex from MesoScale Discovery. 25 μL of plasma per sample was used and protocol was followed according to the manufacturer's recommendations. Data were collected and analyzed using a Sector Imager 6000.
Human DC-SIGN transgenic mice (Tg+) (Schaefer et al., J. Immunol. (2008) 180 (10) 6836-6845) were bred to Signr1 deficient mice (−/− or KO) (Orr et al., Glycobiology (2013) 23(3): 363-380). Human DC-SIGN expression was checked using PCR to genotype the mice. Human DC-SIGN Tg+ Signr1−/− mice or human DC-SIGN Tg− Signr1−/− mice were tested with compounds as indicated in the above examples.

THP1-Dual/STING-KO cells = experiment: THP1-Dual/STING-KO assay; assay type: cell-based; settings: Homo sapiens, pooled STING-KO clones
Experimental: The fold change over background was calculated and normalized to the fold-change induced by 2′3′-cGAMP at 50 uM. Plates were run in triplicate.

[2] = tested on: transgenic mice expressing human DC-SIGN gene (Tg+); experiment: Plasma cytokine production in transgenic mice expressing human DC-SIGN (ELISA / MesoScaleDiscovery); assay type: in vivo, mouse
Experimental: FIGS. 5A-5E show exemplary data on DC-SIGN immunoconjugates inducing cytokine production in Tg+ mice. […] Plasma levels were analyzed by ELISA (IP-10 and IFNβ) or MesoScaleDiscovery Multiplex analysis (all other analytes). **** denotes p value of <0.0001 using an ANOVA with Tukey's test compared to Tg-2B2 hlgG1 DAPA C1 group.
as §1

T1 sequence (Q86WV6 whole entry H232R): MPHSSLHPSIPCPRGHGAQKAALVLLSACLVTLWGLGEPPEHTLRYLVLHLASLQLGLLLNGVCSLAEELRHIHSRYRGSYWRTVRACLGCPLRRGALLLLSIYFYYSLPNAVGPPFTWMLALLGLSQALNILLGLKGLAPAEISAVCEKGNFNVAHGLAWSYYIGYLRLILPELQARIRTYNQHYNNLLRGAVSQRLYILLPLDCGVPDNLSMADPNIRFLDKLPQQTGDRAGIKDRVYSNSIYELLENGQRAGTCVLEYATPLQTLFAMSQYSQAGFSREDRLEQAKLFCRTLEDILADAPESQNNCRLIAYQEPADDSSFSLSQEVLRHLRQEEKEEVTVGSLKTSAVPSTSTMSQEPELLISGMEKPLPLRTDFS

SMILES: NCCCNc1ncnc2c1ncn2[C@@H]1O[C@@H]2CO[P@@](=O)(S)O[C@H]3[C@@H](F)[C@H](n4cnc5c(N)ncnc54)O[C@@H]3CO[P@@](=O)(S)O[C@H]2[C@H]1F
- EC50 (human STING wild type): > 25000 nM

SMILES: CCCCCCCCCCO[C@@H]1[C@@H]2O[P@](=O)(S)OC[C@H]3O[C@@H](n4cnc5c(N)ncnc54)[C@H](O[P@](=O)(S)OC[C@H]2O[C@H]1n1cnc2c(N)ncnc21)[C@@H]3O
- EC50 (THP1-Dual cells): > 25000 nM

SMILES: Nc1ncnc2c1ncn2C1OC2COP(=O)(S)OC3C(COP(=O)(S)OC2C1F)OC(n1cnc2c(N)ncnc21)C3F (stereo not drawn) [Compound T1-1, di-2′-F—RR-CDA]
- plasma IL-12p70 [1]: increased
- plasma IP-10 [1]: increased
- plasma TNFα [1]: increased
- EC50 (human STING wild type): 294 nM
- EC50 (THP1-Dual cells): 462 nM
- EC50 (THP1-Dual/STING-KO cells): > 50000 nM
- circulating plasma IL-12p70 [2]: increased
- circulating plasma IP-10 [2]: increased
- circulating plasma TNFα [2]: increased

SMILES: Nc1ncnc2c1ncn2[C@@H]1O[C@@H]2CO[P@@](=O)(S)O[C@@H]3[C@H](O)[C@@H](CO[P@@](=O)(S)O[C@H]2[C@H]1F)O[C@H]3n1cnc2c(N)ncnc21 [Compound T1-2]
- EC50 (THP1-Dual cells): 1990 nM
